# Source: PubChem BioAssay AID1963852 (Molecular Pharmacology Branch, DTP, NCI, 2024)
# Tested on: 282377-053-R-J1-PDC complex spheroid viability
# Experiment: Anticancer human tumor 282377-053-R-J1-PDC patient-derived colon adenocarcinoma cell line growth inhibition [POLQ]
# Details: for IC50: curve of first compound; for viability, T/C: stronger effect = lower value
# Protocol: Multicellular complex tumor spheroid response to Polymerase (POL) inhibitors (novobiocin, ART-558, RP6685) in combination with a variety of drugs and investigational agents in selected tumor cell lines
# The POL inhibitors (novobiocin, ART-558, and RP6685) were evaluated both individually and in combination with standard of care and investigational anticancer small molecules within a complex spheroid model of solid tumors. . Complex spheroids include a stromal component modeled by human endothelial cells (HUVEC) and fibroblasts modeled by human mesenchymal stem cells (MSCs). The concentration ranges selected for each drug and investigational agent were based upon clinically achievable concentrations if the clinical Cmax of the agent was known.
# Compounds. The drugs and investigational agents: novobiocin (NSC847541), ART-558 (NSC835418), RP-6685 (NSC848927), peposertib (NSC802822), ceralasertib (NSC780249), elimusertib (NSC800525), camonsertib (NSC841442), AZD-1390 (NSC803789), olaparib (NSC753686), talazoparib (NSC767125), rucaparib (NSC756644), sotorasib (NSC818433), MRTX-1133 (NSC836407), SN-38 (NSC673596), topotecan (NSC609699), epotoside (NSC141540), doxorubicin (NSC123127), gemcitabine (NSC613327), 5-fluorouracil (NSC19893), paclitaxel (NSC125973), vemurafenib (NSC761431), MSA-2 (NSC828583), SN-011 (NSC837082), adavosertib (NSC754352), prexasertib (NSC758257), carboplatin (NSC241240) and oxaliplatin (NSC266046), were obtained from the National Cancer Institute (NCI) Developmental Therapeutics Program Chemical Repository (21). The FDA-approved anticancer drug set is available from the Developmental Therapeutics Program at https://dtp.cancer.gov/organization/dscb/obtaining/. […] The stock solutions were prepared in dimethyl sulfoxide (DMSO, Sigma-Aldrich, St. Louis, MO, cat. D2650), except for the platinum compounds which were prepared in saline (Quality Biological, Gaithersburg, MD, cat. 114-055-101), at 800-fold the tested concentration and stored at -70 degrees C prior to their use. All drugs and investigational agents were tested over a range starting from a high concentration at or near the clinical Cmax and decreasing in half-log increments. If the clinical Cmax for an agent had not been determined, the highest concentration tested was 10 microM, except for SN-38, which was tested at a high concentration of 1 microM.
# Cell Culture. All cells were maintained in an incubator at 37 degrees C and 5% CO2 with 95% humidity. The PDC lines were cultured according to standard operating procedures established by the NCI PDMR (https://pdmr.cancer.gov). Table 3 of the manuscript, lists the cell lines along with the number of the three cell types plated to form the mct-spheroids and media for tumor cell growth. After thawing, all PDC lines, except 997537-175-T-J1-PDC and 415267-285-R-J2-PDC, were cultured in Matrigel-coated flasks prepared with a working solution of 1X Ham's F-12 nutrient mix, without supplementation (Thermo Fisher Scientific, cat. 11765054), 100 U/mL penicillin-streptomycin (Thermo Fisher Scientific, cat. 15140122), and 2.5% Matrigel (Corning Inc., Corning, NY, cat. 354248) for the first three passages. The two PDC lines 997537-175-T-J1-PDC and 415267-285-R-J2-PDC were cultured on uncoated flasks. The 857933-349-R-J2-PDC line was cultured in 6C/Colon 1B media containing advanced DMEM/F-12 (Thermo Fisher Scientific, cat. 12634028), 10 mM HEPES (Thermo Fisher Scientific, cat. 15630080), 1X GlutaMAX supplement (Thermo Fisher Scientific, cat. 35050061), 0.1 mg/mL primocin (InvivoGen, San Diego, CA, cat. ant-pm-2), 10% defined fetal bovine serum, heat inactivated (HyClone Laboratories Inc., Logan, UT, cat. SH30070.03HI), 50% L-WRN conditioned media (ATCC, cat. CRL-3276), 1.25 mM N-Acetyl-L-cysteine (Sigma-Aldrich, cat. A9165), 10 mM nicotinamide (Sigma-Aldrich, cat. N0636), 1X B-27 supplement (Thermo Fisher Scientific, cat. 17504044), 1X N-2 supplement (Thermo Fisher Scientific, cat. […]
# [1] = second compound 0.0316 µM, first compound 0.0316 µM
# [2] = second compound 0.0316 µM, first compound 0.1 µM
# [3] = second compound 0.0316 µM, first compound 0.316 µM
# [4] = second compound 0.0316 µM, first compound 1 µM
# [5] = second compound 0.0316 µM, first compound 3.16 µM
# [6] = second compound 0.0316 µM, first compound 10 µM
# [7] = second compound 0.1 µM, first compound 0.0316 µM
# [8] = second compound 0.1 µM, first compound 0.1 µM
# [9] = second compound 0.1 µM, first compound 0.316 µM
# [10] = second compound 0.1 µM, first compound 1 µM
# [11] = second compound 0.1 µM, first compound 3.16 µM
# [12] = second compound 0.1 µM, first compound 10 µM
# [13] = second compound 0.316 µM, first compound 0.0316 µM
# [14] = second compound 0.316 µM, first compound 0.1 µM
# [15] = second compound 0.316 µM, first compound 0.316 µM
# [16] = second compound 0.316 µM, first compound 1 µM
# [17] = second compound 0.316 µM, first compound 3.16 µM
# [18] = second compound 0.316 µM, first compound 10 µM
# [19] = second compound 1 µM, first compound 0.0316 µM
# [20] = second compound 1 µM, first compound 0.1 µM
# [21] = second compound 1 µM, first compound 0.316 µM
# [22] = second compound 1 µM, first compound 1 µM
# [23] = second compound 1 µM, first compound 3.16 µM
# [24] = second compound 1 µM, first compound 10 µM
# [25] = second compound 3.16 µM, first compound 0.0316 µM
# [26] = second compound 3.16 µM, first compound 0.1 µM
# [27] = second compound 3.16 µM, first compound 0.316 µM
# [28] = second compound 3.16 µM, first compound 1 µM
# [29] = second compound 3.16 µM, first compound 3.16 µM
# [30] = second compound 3.16 µM, first compound 10 µM
# [31] = second compound 10 µM, first compound 0.0316 µM
# [32] = second compound 10 µM, first compound 0.1 µM
# [33] = second compound 10 µM, first compound 0.316 µM
# [34] = second compound 10 µM, first compound 1 µM
# [35] = second compound 10 µM, first compound 3.16 µM
# [36] = second compound 10 µM, first compound 10 µM
# 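Note: spheroids exposed to compounds for seven days.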
# 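Throughout, for viability, T/C: 100% = DMSO vehicle control viability.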
smiles,measurement,setting,value
CCc1cc2c(N3CCc4c(cc(Cn5ccnc5)cc4-c4cn(C)nc4C(F)(F)F)C3=O)cc(C)nc2c(OC)n1 + COC1C(OC(N)=O)C(O)C(Oc2ccc3c(O)c(NC(=O)c4ccc(O)c(CC=C(C)C)c4)c(=O)oc3c2C)OC1(C)C,IC50,second compound 0.0316 µM,> 10000 nM
same,IC50,second compound 0.1 µM,> 10000 nM
same,IC50,second compound 0.316 µM,> 10000 nM
same,IC50,second compound 1 µM,> 10000 nM
same,IC50,second compound 3.16 µM,> 10000 nM
same,IC50,second compound 10 µM,> 10000 nM
same,"viability, T/C",[1],130%
same,"viability, T/C",[2],152%
same,"viability, T/C",[3],172%
same,"viability, T/C",[4],158%
same,"viability, T/C",[5],123%
same,"viability, T/C",[6],74.5%
same,"viability, T/C",[7],120%
same,"viability, T/C",[8],157%
same,"viability, T/C",[9],124%
same,"viability, T/C",[10],131%
same,"viability, T/C",[11],134%
same,"viability, T/C",[12],68.9%
same,"viability, T/C",[13],132%
same,"viability, T/C",[14],126%
same,"viability, T/C",[15],132%
same,"viability, T/C",[16],140%
same,"viability, T/C",[17],119%
same,"viability, T/C",[18],67.2%
same,"viability, T/C",[19],141%
same,"viability, T/C",[20],128%
same,"viability, T/C",[21],143%
same,"viability, T/C",[22],158%
same,"viability, T/C",[23],108%
same,"viability, T/C",[24],80.7%
same,"viability, T/C",[25],109%
same,"viability, T/C",[26],125%
same,"viability, T/C",[27],133%
same,"viability, T/C",[28],126%
same,"viability, T/C",[29],128%
same,"viability, T/C",[30],73.8%
same,"viability, T/C",[31],111%
same,"viability, T/C",[32],109%
same,"viability, T/C",[33],114%
same,"viability, T/C",[34],143%
same,"viability, T/C",[35],123%
same,"viability, T/C",[36],80%
COc1cccc2c1C(=O)c1c(O)c3c(c(O)c1C2=O)CC(O)(C(=O)CO)CC3OC1CC(N)C(O)C(C)O1 (centres undefined) + Cc1cccc(N(C)C(=O)C2C(O)CCN2c2nc(C)cc(C(F)(F)F)c2C#N)c1,IC50,second compound 0.0316 µM,476 nM
same,IC50,second compound 0.1 µM,561 nM
same,IC50,second compound 0.316 µM,458 nM
same,IC50,second compound 1 µM,375 nM
same,IC50,second compound 3.16 µM,487 nM
same,IC50,second compound 10 µM,350 nM
same,"viability, T/C",[1],130%
same,"viability, T/C",[2],105%
same,"viability, T/C",[3],63.7%
same,"viability, T/C",[4],27.6%
same,"viability, T/C",[5],1.27%
same,"viability, T/C",[6],3.44%
same,"viability, T/C",[7],108%
same,"viability, T/C",[8],98.5%
same,"viability, T/C",[9],79.6%
same,"viability, T/C",[10],20.7%
same,"viability, T/C",[11],1.4%
same,"viability, T/C",[12],2.79%
same,"viability, T/C",[13],104%
same,"viability, T/C",[14],100%
same,"viability, T/C",[15],66.1%
same,"viability, T/C",[16],16.1%
same,"viability, T/C",[17],0.98%
same,"viability, T/C",[18],3.12%
same,"viability, T/C",[19],113%
same,"viability, T/C",[20],101%
same,"viability, T/C",[21],47%
same,"viability, T/C",[22],29.9%
same,"viability, T/C",[23],2.19%
same,"viability, T/C",[24],2.83%
same,"viability, T/C",[25],115%
same,"viability, T/C",[26],91.7%
same,"viability, T/C",[27],73.3%
same,"viability, T/C",[28],15.2%
same,"viability, T/C",[29],1%
same,"viability, T/C",[30],2.98%
same,"viability, T/C",[31],95%
same,"viability, T/C",[32],89.8%
same,"viability, T/C",[33],54%
same,"viability, T/C",[34],9.01%
same,"viability, T/C",[35],0.71%
same,"viability, T/C",[36],2.73%
